{"source": "patent US7081256B2", "about": "“Quinolinone derivative pharmaceutical compositon and production method therefor” (Dainippon Ink and Chemicals, Inc., priority 2001, dated 2006)", "key": {"[1]": {"experiment": "Differential scanning calorimetry (DSC)", "type": "physicochemical", "details": "for DSC Fusion enthalpy ΔH: 25 to 250° C., heating rate 20° C./min.", "source_text": "Furthermore, the quinolinone derivative used in the present invention has a fusion enthalpy (ΔH) of 30 J/g or more, and preferably 35 J/g or more. […] As used herein, the term “fusion enthalpy” refers to a value obtained from an endothermic peak due to fusion of the quinolinone derivative crystal in differential scanning calorimetry (DSC) and is an index of the crystallinity.\n(§1) • Measurement of particle size distribution: The particle size distribution was automatically measured by AEROSIZER (manufactured by Central Scientific Commerce, Inc.). • DSC method: Using DSC7 (manufactured by Perkin Elmer Co.), the measurement was conducted at a temperature within a range from 25 to 250° C. under the conditions of a heating rate of 20° C./min. by a normal method."}, "[2]": {"experiment": "Measurement of particle size distribution (AEROSIZER)", "type": "physicochemical", "details": "for Average particle diameter: mass median aerodynamic diameter", "procedure": "As used herein, the expression “quinolinone derivative is in the form of particles, which have an average particle diameter of 0.5 to 10 μm and such a particle size distribution that particles having a particle diameter of 15 μm or less account for 90% or more of the totality of the particles” means that a mass median aerodynamic diameter in the volume-basis distribution obtained, when the particle size distribution of the quinolinone derivative is measured by an aerodynamic flight time type dry particle size distribution measuring apparatus (AEROSIZER: Central Scientific Commerce, Inc.), is within a range from 0.5 to 10 μm and the particles have such a particle size distribution that particles having a particle diameter of 15 μm or less account for 90% or more of the totality of the particles.\nas §1"}, "[3]": {"experiment": "Dissolution test, paddle method, 50 rpm, 0.5% sodium lauryl sulfate", "type": "physicochemical", "details": "paddle 50 rpm, compared with the non-ground product", "procedure": "Furthermore, dissolution properties of these quinolinone derivatives were evaluated by the dissolution test (paddle method). The results are shown in FIG. 2. • Powder X-ray diffraction method: Using RINT-ULTIMA (manufactured by Rigaku Denki Kogyo Co., Ltd.), the measurement was conducted at a diffraction angle within a range from 5 to 40° under the conditions of Cu—Kα rays, 40 KV and 30 mA by the normal method. • Dissolution test method: According to the second method (paddle method) of the dissolution test method of The Pharmacopoeia of Japan, Fourteenth Edition, the measurement was conducted under the conditions of a paddle rotational speed of 50 rpm using 0.5% sodium lauryl sulfate as a test liquid.\n(§2) According to the disintegration test of The Pharmacopoeia of Japan, Fourteenth Edition, the disintegration time of the resulting tablets was measured by using water as a test liquid (n=3). […]\nas §2, §2"}, "[4]": {"details": "dog, in vivo, po, 10 mg/kg", "experimental": "After oral administration, 30 ml of distilled water was orally administered. After oral administration, 2.5 ml of blood was collected from the antebrachial vein over time and was then centrifuged to obtain blood plasma. After adding the one-fold amount of acetonitrile to blood serum to remove protein, the amounts of quinolinone derivative and its metabolite were determined by using HPLC.\nFrom the quantitatively determined values of the quinolinone derivative and its metabolite immediately after collecting blood, an average value of a maximum concentration in blood (Cmax) and an average value of an area under a curve of concentration in blood vs time (AUC) were determined."}}, "note": "Like-named read-outs stand apart in the source and are kept apart here."}
{"smiles": "CCCCCCCCOc1c(O)c2ccc(NC(=O)/C=C/c3cc(OC)c(O)c(OC)c3)cc2n(C)c1=O", "note": "[Comparative Example 2, 7-(3,5-dimethoxy-4-hydroxycinnamoylamino)-3-octyloxy-4-hydroxy-1-methyl-2(1H)-quinoline]", "values": [{"measurement": "Solid state by DSC (endothermic peak of β-type crystal)", "setting": "[1]; after grinding in agate mortar for 30 minutes", "value": "amorphous state"}]}
{"smiles": "CCCCCCCCOc1c(O)c2ccc(NC(=O)/C=C/c3cc(OC)c(O)c(OC)c3)cc2n(C)c1=O", "note": "[quinolinone derivative (A), 7-(3,5-dimethoxy-4-hydroxycinnamoylamino)-3-octyloxy-4-hydroxy-1-methyl-2(1H)-quinoline]", "values": [{"measurement": "Proportion (%) of particles having a particle diameter of 15 μm or less based on the totality of the particles", "setting": "[2]", "value": "≥ 9.9", "unit": "%"}, {"measurement": "Proportion (%) of particles having a particle diameter of 15 μm or less based on the totality of the particles", "setting": "[2]; listed as (A)", "value": 9.9, "unit": "%"}, {"measurement": "Average particle diameter", "setting": "[2]", "value": 25.3, "unit": "μm"}, {"measurement": "Average particle diameter", "setting": "[2]; listed as (A)", "value": 25.3, "unit": "μm"}, {"measurement": "DSC Fusion enthalpy ΔH", "setting": "[1]", "value": "≥ 49.9", "unit": "J/g"}, {"measurement": "DSC Fusion enthalpy ΔH", "setting": "[1]; listed as (A)", "value": 49.9, "unit": "J/g"}]}
{"smiles": "CCCCCCCCOc1c(O)c2ccc(NC(=O)/C=C/c3cc(OC)c(O)c(OC)c3)cc2n(C)c1=O", "note": "[quinolinone derivative (A-1), 7-(3,5-dimethoxy-4-hydroxycinnamoylamino)-3-octyloxy-4-hydroxy-1-methyl-2(1H)-quinoline]", "values": [{"measurement": "Proportion (%) of particles having a particle diameter of 15 μm or less based on the totality of the particles", "setting": "[2]; listed as (A-1)", "value": 100, "unit": "%"}, {"measurement": "Average particle diameter", "setting": "[2]; listed as (A-1)", "value": 4.5, "unit": "μm"}, {"measurement": "DSC Fusion enthalpy ΔH", "setting": "[1]; listed as (A-1)", "value": 47.7, "unit": "J/g"}, {"measurement": "dissolution rate (FIG. 2)", "setting": "[3]", "value": "drastically increased"}]}
{"smiles": "CCCCCCCCOc1c(O)c2ccc(NC(=O)/C=C/c3cc(OC)c(O)c(OC)c3)cc2n(C)c1=O", "note": "[quinolinone derivative (B), 7-(3,5-dimethoxy-4-hydroxycinnamoylamino)-3-octyloxy-4-hydroxy-1-methyl-2(1H)-quinoline]", "values": [{"measurement": "Proportion (%) of particles having a particle diameter of 15 μm or less based on the totality of the particles", "setting": "[2]", "value": "≥ 0.6", "unit": "%"}, {"measurement": "Proportion (%) of particles having a particle diameter of 15 μm or less based on the totality of the particles", "setting": "[2]; listed as (B)", "value": 0.6, "unit": "%"}, {"measurement": "Average particle diameter", "setting": "[2]", "value": 33.3, "unit": "μm"}, {"measurement": "Average particle diameter", "setting": "[2]; listed as (B)", "value": 33.3, "unit": "μm"}, {"measurement": "DSC Fusion enthalpy ΔH", "setting": "[1]", "value": "≥ 52.7", "unit": "J/g"}, {"measurement": "DSC Fusion enthalpy ΔH", "setting": "[1]; listed as (B)", "value": 52.7, "unit": "J/g"}]}
{"smiles": "CCCCCCCCOc1c(O)c2ccc(NC(=O)/C=C/c3cc(OC)c(O)c(OC)c3)cc2n(C)c1=O", "note": "[quinolinone derivative (B-1), 7-(3,5-dimethoxy-4-hydroxycinnamoylamino)-3-octyloxy-4-hydroxy-1-methyl-2(1H)-quinoline]", "values": [{"measurement": "Proportion (%) of particles having a particle diameter of 15 μm or less based on the totality of the particles", "setting": "[2]; listed as (B-1)", "value": 95, "unit": "%"}, {"measurement": "Average particle diameter", "setting": "[2]; listed as (B-1)", "value": 6.6, "unit": "μm"}, {"measurement": "DSC Fusion enthalpy ΔH", "setting": "[1]; listed as (B-1)", "value": 51.6, "unit": "J/g"}, {"measurement": "AUC increase as compared with the non-ground product", "setting": "[4]", "value": 8.7, "unit": "times"}, {"measurement": "Cmax increase as compared with the non-ground product", "setting": "[4]", "value": 9, "unit": "times"}]}
